The values that follow come from PubChem BioAssay (NCI).

Test systems include OVCAR-8 ovarian; MOLT-4 leukemia; MDA-MB-231 breast; IGROV1 ovarian; 786-0 renal; OVCAR-3 ovarian; SN12C renal; CAKI-1 renal; SR leukemia; U251 CNS; NCI-H23 lung; HL-60(TB) leukemia; SF-295 CNS; RPMI-8226 leukemia; A549 NSCLC; UACC-257 melanoma; NCI-H522 lung.
Holding throughout (test): NCI anticancer screen, dose series, 48 h

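These data come from cells grown in 96-well plates and exposed to compound for 48 hours at five concentrations. TGI is the concentration that stops growth completely.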

For `CC12CC(=O)Nc3ccccc3N1C(c1ccccc1)=NO2` (centres undefined), the TGI with OVCAR-8 ovarian, in the experiment with MOLT-4 leukemia, in the experiment on MDA-MB-231 breast, in the experiment with IGROV1 ovarian, in the experiment with 786-0 renal and in the experiment with OVCAR-3 ovarian was above 100 µM in each case. Further, the TGI in the experiment with SN12C renal, in the experiment with CAKI-1 renal, in the experiment with SR leukemia, in the experiment with U251 CNS, with NCI-H23 lung and in the experiment with HL-60(TB) leukemia was above 100 µM in each case. The TGI in the experiment with SF-295 CNS, in the experiment on RPMI-8226 leukemia, in the experiment with A549 NSCLC, with UACC-257 melanoma and in the experiment with NCI-H522 lung was above 100 µM each time.

For the molecule `CC12CCCCC1=C(F)C(F)(F)S2` (centres undefined), the TGI in the experiment on OVCAR-8 ovarian is 77.3 µM; with MOLT-4 leukemia, 36 µM; with MDA-MB-231 breast, above 100 µM; with IGROV1 ovarian, above 100 µM; with 786-0 renal, 45.9 µM; in the experiment on OVCAR-3 ovarian, 48 µM. Besides, the TGI was above 75.2 µM in the experiment with SN12C renal; 48.9 µM in the experiment with CAKI-1 renal; 28 µM in the experiment on SR leukemia; above 100 µM in the experiment with U251 CNS; above 100 µM in the experiment with NCI-H23 lung; 15.3 µM with HL-60(TB) leukemia. Besides, the TGI with SF-295 CNS is above 71.4 µM; with RPMI-8226 leukemia it was 37.7 µM; in the experiment on A549 NSCLC, above 100 µM; in the experiment on UACC-257 melanoma it was 51.6 µM; in the experiment on NCI-H522 lung it was 45.3 µM.

`Clc1ccc2c(NCCCCN3OC3c3ccccc3)ccnc2c1` (centres undefined): the TGI with OVCAR-8 ovarian turned out to be 13.1 µM; in the experiment on MOLT-4 leukemia, 9.3 µM; with MDA-MB-231 breast, 5.92 µM; in the experiment with IGROV1 ovarian, 27.7 µM; with 786-0 renal, 6.67 µM; in the experiment on OVCAR-3 ovarian, 9.33 µM. The TGI was 24.7 µM in the experiment on SN12C renal; 21.8 µM with CAKI-1 renal; above 100 µM in the experiment with SR leukemia; 9.13 µM with U251 CNS; 35.2 µM in the experiment with NCI-H23 lung; 2.63 µM in the experiment on HL-60(TB) leukemia. Further, the TGI was found to be 26.1 µM in the experiment with SF-295 CNS; 5.98 µM with RPMI-8226 leukemia; 19.2 µM in the experiment with A549 NSCLC; 34.5 µM in the experiment with UACC-257 melanoma; 16.4 µM with NCI-H522 lung.

With `COc1c2c(nc3ccccc13)-c1cc(C(CC(=O)OC(C)(C)C)C(=O)OC(C)C)c(CO)c(=O)n1C2` (centres undefined), the TGI in the experiment on OVCAR-8 ovarian, in the experiment with MOLT-4 leukemia, in the experiment on MDA-MB-231 breast, in the experiment with IGROV1 ovarian, in the experiment on 786-0 renal and in the experiment on OVCAR-3 ovarian was above 100 µM throughout. The TGI in the experiment on SN12C renal, in the experiment with CAKI-1 renal, in the experiment on SR leukemia, in the experiment on U251 CNS, with NCI-H23 lung and in the experiment with HL-60(TB) leukemia was above 100 µM in each case. For the same molecule, the TGI in the experiment on SF-295 CNS, in the experiment on RPMI-8226 leukemia, with A549 NSCLC, in the experiment with UACC-257 melanoma and with NCI-H522 lung was above 100 µM throughout.

Take `O=C(Cn1cc(Br)c(=O)[nH]c1=O)c1ccc(-c2ccccc2)cc1`: the TGI in the experiment with OVCAR-8 ovarian was 76.5 µM; with MOLT-4 leukemia, above 27.5 µM; in the experiment on MDA-MB-231 breast, above 52 µM; with IGROV1 ovarian, above 33.1 µM; in the experiment with 786-0 renal, above 100 µM; in the experiment with OVCAR-3 ovarian, above 100 µM. The TGI in the experiment on SN12C renal is above 100 µM; in the experiment on CAKI-1 renal, above 41.8 µM; with SR leukemia, above 100 µM; with U251 CNS it was 62.5 µM; in the experiment with NCI-H23 lung, above 27.5 µM; in the experiment with HL-60(TB) leukemia, above 35.1 µM. The TGI in the experiment on SF-295 CNS was above 100 µM; in the experiment on RPMI-8226 leukemia it was above 100 µM; in the experiment with A549 NSCLC, above 100 µM; in the experiment with UACC-257 melanoma it was above 100 µM; in the experiment with NCI-H522 lung, above 13.9 µM.

Take `Cc1ccc(S(=O)(=O)CNC(=O)C(O)(O)C(F)(F)F)cc1`: the TGI in the experiment with OVCAR-8 ovarian, in the experiment on MOLT-4 leukemia, in the experiment with MDA-MB-231 breast, in the experiment on IGROV1 ovarian, in the experiment with 786-0 renal and with OVCAR-3 ovarian was above 100 µM throughout. The TGI in the experiment on SN12C renal, in the experiment with CAKI-1 renal, with SR leukemia, in the experiment with U251 CNS, with NCI-H23 lung and with HL-60(TB) leukemia was above 100 µM each time. For the same molecule, the TGI in the experiment with SF-295 CNS, with RPMI-8226 leukemia, in the experiment with A549 NSCLC, in the experiment with UACC-257 melanoma and in the experiment on NCI-H522 lung was above 100 µM throughout.

On to `CCOC(=O)C(=CNc1ccc(N(C2=NCC(C)S2)c2ccc(F)c(Cl)c2)cc1)C(=O)OCC` (centres undefined), for which the TGI in the experiment on OVCAR-8 ovarian worked out at 37.3 µM; in the experiment on MOLT-4 leukemia, 41.6 µM; with MDA-MB-231 breast it was 30.9 µM; with IGROV1 ovarian, 44.5 µM; in the experiment on 786-0 renal, 33.2 µM; with OVCAR-3 ovarian, 51.8 µM. Also, the TGI with SN12C renal was 36.2 µM; with CAKI-1 renal, above 100 µM; in the experiment on SR leukemia it was 43.1 µM; in the experiment with U251 CNS it was 48.1 µM; in the experiment on NCI-H23 lung it was 33.9 µM; in the experiment on HL-60(TB) leukemia, 52.9 µM. In addition, the TGI stood at 64.2 µM in the experiment with SF-295 CNS; 72.8 µM in the experiment with RPMI-8226 leukemia; 86.1 µM with A549 NSCLC; 34 µM with UACC-257 melanoma; 30.3 µM with NCI-H522 lung.
